The source of these data is patent US10081614B2, “Bis(sulfonamide) derivatives and their use as mPGES inhibitors” (Acturum Real Estate AB, priority 2014, dated 2018).

Assay [1] has as its system mPGES-1-dependent PGE2 production in human blood. Nature of the assay: Whole blood assay (LPS-stimulated human blood, PGE2 production). The format is cell-based. The conditions noted are these: 0.1 μg/ml LPS, 16 hours at 37° C., PGE2 by HTRF, read-out: hWBA. The source says:
The whole blood assay [described by Patrignani, P. et al, Journal of Pharmacology and Experimental Therapeutics, 1994, vol. 271, pp 1705-1712] was used as the whole cell assay for testing the compounds. Whole blood provides a protein and cell rich environment for the study of biochemical efficacy of anti-inflammatory compounds, such as prostaglandin synthase inhibitors. To study the inhibitory activities of these compounds, human blood was stimulated with lipopolysaccharide (LPS) for typically 16 hours to induce mPGES-1 expression, after which the concentration of produced PGE2 was measured by competitive-immuno assay (homogeneous time-resolved fluorescence, HTRF) as read out for effectiveness against mPGES-1-dependent PGE2 production.
Human blood collected from human volunteers in heparinized tubes was incubated with 100 μM acetyl salicylic acid, in order to inhibit the constitutively expressed cyclooxygenase (COX)-1/COX-2 enzymes, and then stimulated with 0.1 μg/ml LPS to induce the expression of enzymes along the COX-2 pathway, e.g. COX-2 and mPGES-1. 100 μL of this blood was added to the wells of a 384-well plate containing 1 μL DMSO solutions of compounds typically in the final concentration range 316 μM to 0.01 μM. Naproxen was used as reference compound. The mix was incubated at 37° C. for 16 hours. Plasma was harvested by centrifugation and stored at −70° C. until further analysis of PGE2 levels. For the calculations, the 0%-activity value was represented by blood treated with acetyl salicylic acid, LPS and the reference compound (1 mM Naproxen). The 100%-activity value was represented by blood treated with aspirin, LPS and DMSO. [Reference: Patrignani, P. et al, Journal of Pharmacology and Experimental Therapeutics, 1994, vol. 271, pp 1705-1712]. The PGE2 formed was quantified, after dilution in a weak potassium phosphate buffer (50 mM, pH 6.8) containing 0.2% BSA (w/v), by use of a commercial HTRF based kit (catalogue #62PG2PEC or #62P2APEC from Cisbio International). IC50 values were then determined using standard procedures.

The target in another assay is T1, human mPGES-1 (Homo sapiens, UniProt O14684).
T1 construct: host or cells: microsomes
T1 sequence (O14684 1-152): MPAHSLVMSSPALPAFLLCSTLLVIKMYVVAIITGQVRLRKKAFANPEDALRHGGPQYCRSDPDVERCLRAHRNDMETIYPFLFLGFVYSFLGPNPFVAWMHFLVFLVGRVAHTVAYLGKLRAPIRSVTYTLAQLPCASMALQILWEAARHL
In words: Microsomal prostaglandin E synthase biochemical assay. The conditions noted are these: microsomes containing human mPGES-1, PGH2 10.8 μM, GSH 2.5 mM, pH 6.8; average of at least n=2. How it is done:
Compounds were tested as inhibitors of microsomal prostaglandin E synthase activity in microsomal prostaglandin E synthase assays and whole cell assays. These assays measure prostaglandin E2 (PGE2) synthesis, which is taken as a measure of prostaglandin E synthase activity. Microsomal prostaglandin E synthase biochemical assays used microsomal prostaglandin E synthase-1 in microsomal preparations. The source of the microsomes can be for example interleukin-1β-stimulated human A549 cells (which express human mPGES-1) or Sf9 cells transfected with plasmids encoding human mPGES-1 cDNA.
A solution of test compound was added to a diluted microsome preparation containing human mPGES-1 and pre-incubated for 15 minutes in potassium phosphate buffer pH 6.8 with cofactor glutathione (GSH). Corresponding solutions without test compound were used as positive controls, and corresponding solutions without test compound and without microsomes were used as negative controls. The enzymatic reaction was then started by addition of the substrate PGH2 in an organic solution (dry acetonitrile).
The typical reaction conditions of the enzymatic reaction were thus: Test compound: ranging from 60 μM to 0.002 μM, or zero in positive and negative controls; potassium phosphate buffer pH 6.8:50 mM; GSH: 2.5 mM; mPGES-1-containing microsomes: 2 μg/mL (sample and positive controls) or 0 μg/mL (negative control); PGH2: 10.8 μM; Acetonitrile: 7.7% (v/v); DMSO: 0.6% (v/v). The reaction was stopped after one minute by adding an acidic solution (pH 1.9) of ferric chloride and citrate (final concentrations 7 mM and 47 mM respectively), by which the PGH2 was sequestered (the PGH2 is reduced to mainly 12-hydroxy heptadecatrineoic acid (12-HHT) which is not detected by the subsequent PGE2 detection step). The resulting solution was then pH neutralized by addition of potassium phosphate buffer, prior to diluting an aliquot of the resulting solution in a weak potassium phosphate buffer (50 mM, pH 6.8) containing 0.2% BSA (w/v). [Adapted from Jacobsson et al., Proc. Natl. Acad. Sci. USA, 1999, vol. 96, pp. 7220-7225] The PGE2 formed was quantified by use of a commercial HTRF based kit (catalogue #62PG2PEC or #62P2APEC from Cisbio International). 100% activity was defined as the PGE2 production in positive controls subtracted by the PGE2 production in the negative controls. IC50 values were then determined using standard procedures.
The potency is expressed as IC50 and the value indicated is an average of at least n=2.

A value given as a limit tells only on which side of the number the result lay.

Turning to `Cc1ccc(CCS(=O)(=O)Nc2ccccc2S(N)(=O)=O)c(OCC2CCC(F)(F)CC2)c1` [Example 7, 2-{[(2-{2-[(4,4-Difluorocyclohexyl)methoxy]-4-methylphenyl}ethyl)sulfonyl]amino}benzenesulfonamide], the IC50 in assay [1] stood at 54.1 nM; on human mPGES-1, 7.2 nM.

On to `NS(=O)(=O)c1ccccc1NS(=O)(=O)CCc1ccc(C#CC2CCCC2)cc1OCC1CCOCC1` [Example 11, 2-[({2-[4-(Cyclopentylethynyl)-2-(tetrahydro-2H-pyran-4-ylmethoxy)phenyl]ethyl}sulfonyl)amino]benzenesulfonamide], for which the IC50 in assay [1] was 0.987 nM; at human mPGES-1, 2.1 nM.

`Cc1ccc(C#Cc2ccc(CCS(=O)(=O)Nc3ccccc3S(N)(=O)=O)c(OCC3CCOCC3)c2)cc1` [Example 14, 2-{[(2-{4-[(4-Methylphenyl)ethynyl]-2-(tetrahydro-2H-pyran-4-ylmethoxy)phenyl}ethyl)sulfonyl]amino}benzenesulfonamide]: the IC50 was found to be 0.987 nM in assay [1] and 2.1 nM against human mPGES-1.

As to `NS(=O)(=O)c1ccccc1NS(=O)(=O)CCc1ccc(C(F)(F)F)cc1OCC1CCOCC1` [Example 3, 2-[({2-[2-(Tetrahydro-2H-pyran-4-ylmethoxy)-4-(trifluoromethyl)phenyl]ethyl}sulfonyl)amino]benzenesulfonamide], the IC50 was found to be 26.6 nM in assay [1] and 4 nM on human mPGES-1.

In the case of `CC(C)(C)C#Cc1ccc(CCS(=O)(=O)Nc2ccccc2S(N)(=O)=O)c(OCC2CCOCC2)c1` [Example 15, 2-[({2-[4-(3,3-Dimethylbut-1-yn-1-yl)-2-(tetrahydro-2H-pyran-4-ylmethoxy)phenyl]ethyl}sulfonyl)amino]benzenesulfonamide], the IC50 in assay [1] is 17.1 nM; at human mPGES-1, less than 2.5 nM.

As to `NS(=O)(=O)c1ccccc1NS(=O)(=O)CCc1ccc(C#Cc2ccccc2)cc1OCC1CCOCC1` [Example 9, 2-[({2-[4-(Phenylethynyl)-2-(tetrahydro-2H-pyran-4-ylmethoxy)phenyl]ethyl}sulfonyl)amino]benzenesulfonamide], the IC50 in assay [1] came to 0.911 nM; at human mPGES-1, 3.4 nM.

Take `NS(=O)(=O)c1cc(CO)ccc1NS(=O)(=O)CCc1ccc(Cl)cc1OCC1CCOCC1` [Example 16, 2-[({2-[4-chloro-2-(tetrahydro-2H-pyran-4-ylmethoxy)phenyl]ethyl}sulfonyl)amino]-5-(hydroxymethyl)benzenesulfonamide]: the IC50 turned out to be 29 nM in assay [1] and 5.6 nM on human mPGES-1.

Consider `NS(=O)(=O)c1ccccc1NS(=O)(=O)CCc1ccc(F)cc1OCC1CCOCC1` [Example 5, 2-[({2-[4-Fluoro-2-(tetrahydro-2H-pyran-4-ylmethoxy)phenyl]ethyl}sulfonyl)amino]benzenesulfonamide], for which the figures for the IC50 (in assay [1]; against human mPGES-1) were 89.7 nM and 16 nM, respectively.

For the molecule `NS(=O)(=O)c1ccccc1NS(=O)(=O)CCc1ccc(C#CC2CCC2)cc1OCC1CCOCC1` [Example 12, 2-[({2-[4-(cyclobutylethynyl)-2-(tetrahydro-2H-pyran-4-ylmethoxy)phenyl]ethyl}sulfonyl)amino]benzenesulfonamide], the IC50 in assay [1] was 1.84 nM; against human mPGES-1, less than 2.3 nM.

With `NS(=O)(=O)c1ccccc1NS(=O)(=O)CCc1ccc(C#CC2CC2)cc1OCC1CCOCC1` [Example 10, 2-[({2-[4-(Cyclopropylethynyl)-2-(tetrahydro-2H-pyran-4-ylmethoxy)phenyl]ethyl}sulfonyl)amino]benzenesulfonamide], the values for the IC50 (in assay [1]; at human mPGES-1) were 7.92 nM and less than 2.2 nM, respectively.

For `NS(=O)(=O)c1ccccc1NS(=O)(=O)CCc1ccc(Cl)cc1OCC1CCOCC1` [Example 2, 2-[({2-[4-Chloro-2-(tetrahydro-2H-pyran-4-ylmethoxy)phenyl]ethyl}sulfonyl)amino]benzenesulfonamide], the results for the IC50 (in assay [1]; on human mPGES-1) were 24.9 nM and 3.5 nM, respectively.

As to `NS(=O)(=O)c1ccccc1NS(=O)(=O)CCc1ccc(Br)cc1OCC1CCOCC1` [Example 1, 2-[({2-[4-Bromo-2-(tetrahydro-2H-pyran-4-ylmethoxy)phenyl]ethyl}sulfonyl)amino]benzenesulfonamide], the IC50 in assay [1] was found to be 63.9 nM; against human mPGES-1, 3.4 nM.

In the case of `NS(=O)(=O)c1ccccc1NS(=O)(=O)CCc1ccc(F)cc1OCC1CCC(F)(F)CC1` [Example 8, 2-{[(2-{2-[(4,4-Difluorocyclohexyl)methoxy]-4-fluorophenyl}ethyl)sulfonyl]amino}benzenesulfonamide], the IC50 turned out to be 149 nM in assay [1] and 7.6 nM against human mPGES-1.

Turning to `NS(=O)(=O)c1ccccc1NS(=O)(=O)CCc1ccc(Cl)cc1OCC1CCC(F)(F)CC1` [Example 6, 2-{[(2-{4-Chloro-2-[(4,4-difluorocyclohexyl)methoxy]phenyl}ethyl)sulfonyl]amino}benzenesulfonamide], the IC50 in assay [1] is 11.5 nM; at human mPGES-1 it was 2.7 nM.

As for `CC(C)C#Cc1ccc(CCS(=O)(=O)Nc2ccccc2S(N)(=O)=O)c(OCC2CCOCC2)c1` [Example 13, 2-[({2-[4-(3-methylbut-1-yn-1-yl)-2-(tetrahydro-2H-pyran-4-ylmethoxy)phenyl]ethyl}sulfonyl)amino]benzenesulfonamide], the IC50 was 1.85 nM in assay [1] and 3.4 nM against human mPGES-1.

Regarding `Cc1ccc(CCS(=O)(=O)Nc2ccccc2S(N)(=O)=O)c(OCC2CCOCC2)c1` [Example 4, 2-[({2-[4-methyl-2-(tetrahydro-2H-pyran-4-ylmethoxy)phenyl]ethyl}sulfonyl)amino]benzenesulfonamide], the IC50 in assay [1] was found to be 154 nM; against human mPGES-1, 15 nM.

`NS(=O)(=O)c1cc(CO)ccc1NS(=O)(=O)CCc1ccc(F)cc1OCC1CCOCC1` [Example 17, 2-[({2-[4-fluoro-2-(tetrahydro-2H-pyran-4-ylmethoxy)phenyl]ethyl}sulfonyl)amino]-5-(hydroxymethyl)benzenesulfonamide]: the IC50 amounted to 214 nM in assay [1] and 19.5 nM against human mPGES-1.
